Experimental data as given in patent US11739074B2, “Ras inhibitors” (Revolution Medicines, Inc., priority 2019, dated 2023).
pEC50, pIC50: −log10 of the molar value. Like-named read-outs stand apart in the source and are kept apart here.

Experiments:
AsPC-1 (K-Ras G12D) [1] = assay: Potency assay: pERK in AsPC-1 cells; assay type: cell-based; conditions: Homo sapiens
AsPC-1 (K-Ras G12D) [2] = assay: CellTiter-Glo cell viability assay, AsPC-1; assay type: cell-based; conditions: Homo sapiens, ASPC1, 120 h
How it was run: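 Luminescence from CellTiter-Glo serves as the viability read-out after cells are treated with compound for 5 days. Each well's signal is divided by the DMSO average and multiplied by 100, and curves are fitted by four-parameter logistic regression.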

[3] = ASPC1, AsPC-1 cells, K-Ras G12D, read-out: pERK EC50 (AsPC-1 KRAS G12D)
[4] = AsPC-1, K-Ras G12D, 5-day treatment, read-out: AsPC-1 Cell Viability IC50

SMILES: CCn1c(-c2cccnc2[C@H](C)OC)c2c3cc(ccc31)-c1cc(O)cc(c1)C[C@H](NC(=O)[C@H](C(C)C)N(C)C(=O)[C@]1(F)CCN(C(=O)[C@H]3CN3)C1)C(=O)N1CCC[C@H](N1)C(=O)OCC(C)(C)C2 [Compound 311]
- pEC50 (AsPC-1 (K-Ras G12D) [1]; [3]): > 5.30
- pIC50 (AsPC-1 (K-Ras G12D) [2]; [4]): 6.00 to 7.00

SMILES: CCn1c(-c2cccnc2[C@H](C)OC)c2c3cc(ccc31)-c1cc(O)cc(c1)C[C@H](NC(=O)[C@H](C1CCCC1)N(C)C(=O)CN(C)C(=O)[C@@H]1N[C@@H]1C1(F)CC1)C(=O)N1CCC[C@H](N1)C(=O)OCC(C)(C)C2 [Compound 314]
- pEC50 (AsPC-1 (K-Ras G12D) [1]; [3]): > 5.30
- pIC50 (AsPC-1 (K-Ras G12D) [2]; [4]): 6.00 to 7.00

SMILES: CCn1c(-c2cccnc2[C@H](C)OC)c2c3cc(ccc31)-c1cc(O)cc(c1)C[C@H](NC(=O)[C@H](C1CCCC1)N(C)C(=O)CN(C)C(=O)[C@H]1N[C@H]1C1(F)CC1)C(=O)N1CCC[C@H](N1)C(=O)OCC(C)(C)C2 [Compound 315]
- pEC50 (AsPC-1 (K-Ras G12D) [1]; [3]): > 5.30
- pIC50 (AsPC-1 (K-Ras G12D) [2]; [4]): 6.00 to 7.00

SMILES: CCn1c(-c2cccnc2[C@H](C)OC)c2c3cc(ccc31)-c1cc(O)cc(c1)C[C@H](NC(=O)[C@H](C1CCCC1)N(C)C(=O)[C@@H](C)N(C)C(=O)[C@@H]1N[C@@H]1C1CC1)C(=O)N1CCC[C@H](N1)C(=O)OCC(C)(C)C2 [Compound 327]
- pEC50 (AsPC-1 (K-Ras G12D) [1]; [3]): > 5.30
- pIC50 (AsPC-1 (K-Ras G12D) [2]; [4]): 5.00 to 6.00

SMILES: CCn1c(-c2cccnc2[C@H](C)OC)c2c3cc(ccc31)-c1cc(O)cc(c1)C[C@H](NC(=O)[C@H](C(C)C)N(C)C(=O)c1ccc([C@@H]3CN3)nc1)C(=O)N1CCC[C@H](N1)C(=O)OCC(C)(C)C2 [Example 87, 6-((S)-aziridin-2-yl)-N-((2S)-1-(((6^3S,4S)-1^1-ethyl-2^5-hydroxy-1^2-(2-((S)-1-methoxyethyl)pyridin-3-yl)-10,10-dimethyl-5,7-dioxo-6^1,6^2,6^3,6^4,6^5,6^6-hexahydro-1^1H-8-oxa-1(5,3)-indola-6(1,3)-pyridazina-2(1,3)-benzenacycloundecaphane-4-yl)amino)-3-methyl-1-oxobutan-2-yl)-N-methylnicotinamide]
- pEC50 (AsPC-1 (K-Ras G12D) [1]; [3]): > 5.30
- pIC50 (AsPC-1 (K-Ras G12D) [2]; [4]): 5.00 to 6.00

SMILES: CCn1c(-c2cccnc2[C@H](C)OC)c2c3cc(ccc31)-c1cc(O)cc(c1)C[C@H](NC(=O)[C@H](C(C)C)N(C)C(=O)N1CCN(C(=O)[C@H]3CN3)CC1)C(=O)N1CCC[C@H](N1)C(=O)OCC(C)(C)C2 [Example 177, 4-((R)-aziridine-2-carbonyl)-N-((2S)-1-(((6^3S,4S)-1^1-ethyl-2^5-hydroxy-1^2-(2-((S)-1-methoxyethyl)pyridin-3-yl)-10,10-dimethyl-5,7-dioxo-6^1,6^2,6^3,6^4,6^5,6^6-hexahydro-1^1H-8-oxa-1(5,3)-indola-6(1,3)-pyridazina-2(1,3)-benzenacycloundecaphane-4-yl)amino)-3-methyl-1-oxobutan-2-yl)-N-methylpiperazine-1-carboxamide]
- pEC50 (AsPC-1 (K-Ras G12D) [1]; [3]): > 5.30
- pIC50 (AsPC-1 (K-Ras G12D) [2]; [4]): 5.00 to 6.00

SMILES: CCn1c(-c2cccnc2[C@H](C)OC)c2c3cc(ccc31)-c1cc(O)cc(c1)C[C@H](NC(=O)[C@H](C(C)C)N(C)C(=O)CN(C)C(=O)[C@H]1CN1CCCN1CCCC1=O)C(=O)N1CCC[C@H](N1)C(=O)OCC(C)(C)C2 (stereo partly drawn) [Example 268, (2R)—N-(2-(((2S)-1-(((6^3S,4S)-1^1-ethyl-2^5-hydroxy-1^2-(2-((S)-1-methoxyethyl)pyridin-3-yl)-10,10-dimethyl-5,7-dioxo-6^1,6^2,6^3,6^4,6^5,6^6-hexahydro-1^1H-8-oxa-1(5,3)-indola-6(1,3)-pyridazina-2(1,3)-benzenacycloundecaphane-4-yl)amino)-3-methyl-1-oxobutan-2-yl)(methyl)amino)-2-oxoethyl)-N-methyl-1-(3-(2-oxopyrrolidin-1-yl)propyl)aziridine-2-carboxamide]
- pEC50 (AsPC-1 (K-Ras G12D) [1]; ASPC1, read-out: pERK EC50 (AsPC-1 KRAS G12D)): > 5.30
- pIC50 (AsPC-1 (K-Ras G12D) [2]; read-out: AsPC-1 Cell Viability IC50, AsPC-1, K-Ras G12D, 5-day treatment): 5.00 to 6.00
